Data published in ChEMBL document CHEMBL1141002, “Alpha-mercaptoketone based histone deacetylase inhibitors” (Bioorg Med Chem Lett, 2008).
Values joined by “and” are separate entries in the source; they are usually repeats but may differ in a detail not shown here. Identical values can stand only once.

Assays:
[1] = biological target: Histone deacetylase; test: Inhibition of histone deacetylase in human HeLa cells assessed as induction of histone H3 hyperacetylation; type: cell-based
[2] = tested on: HCT-116; test: Cytotoxicity against human HCT116 cells; type: functional, cell-based
[3] = tested on: HCT-116; test: Antitumor activity against human HCT116 cells xenografted in nude mouse at 50 mg/kg, po administered once a day for 14 days relative to control; type: functional

EC50 [1]	SMILES	EC50 [2]	T/C [3]
100 nM	CC(=O)SCC(=O)c1ccc(NS(=O)(=O)c2ccc(C)cc2)cc1	6500 nM	–
67100 nM	CC(=O)SCC(=O)c1ccc(C(=O)Nc2ccc(OC(F)(F)F)cc2)cc1	–	–
4300 nM	CC(=O)SCC(=O)c1ccc(N(C)S(=O)(=O)c2ccc(OC(F)(F)F)cc2)cc1	–	–
460 nM	CC(=O)SCC(=O)c1ccc(NS(=O)(=O)c2cccc(F)c2)cc1	–	–
280 nM	CC(=O)SCC(=O)c1ccc(NS(=O)(=O)c2ccc(Cl)cc2)cc1	30800 nM	–
790 nM	CC(=O)SCC(=O)c1ccc(NS(=O)(=O)c2cccc(OC(F)(F)F)c2)cc1	–	–
200 nM	CC(=O)SCC(=O)c1ccc(NS(=O)(=O)c2ccc(OC(F)(F)F)cc2)cc1	8800 nM	–
50 nM	COc1ccc(S(=O)(=O)Nc2ccc(C(=O)CSC(C)=O)cc2)cc1	500 nM	–
2100 nM	CC(=O)SCC(=O)c1ccc(NS(=O)(=O)c2ccc(C(F)(F)F)cc2)cc1	–	–
1000 nM	CC(=O)SCC(=O)c1ccc(S(=O)(=O)Nc2ccc(OC(F)(F)F)cc2)cc1	16100 nM	–
1500 nM	CC(=O)SCC(=O)c1ccc(NCc2ccc(OC(F)(F)F)cc2)cc1	–	–
170 nM	COc1cccc(S(=O)(=O)Nc2ccc(C(=O)CSC(C)=O)cc2)c1	2600 nM	–
11200 nM	CC(=O)SCC(=O)c1ccc(NC(=O)Nc2ccc(OC(F)(F)F)cc2)cc1	–	–
950 nM	CC(=O)SCC(=O)c1ccc(NS(=O)(=O)c2ccc(F)cc2)cc1	–	–

Continued, molecule first:

SMILES	EC50 [1]	EC50 [2]	T/C [3]
CC(=O)SCC(=O)c1ccc(NS(=O)(=O)c2ccc3c(c2)ncn3C)cc1	79 nM and 38 nM	1800 nM	–
COc1ccc(S(=O)(=O)Nc2ccc(C(=O)CSC(C)=O)cc2)cc1OC	280 nM	3200 nM	–
CC(=O)SCC(=O)c1ccc(NS(=O)(=O)c2ccc3c(c2)NCC3)cc1	47 nM	3300 nM	–
CC(=O)SCC(=O)c1ccc(NS(=O)(=O)c2ccc3c(c2)N(C(C)=O)CC3)cc1	91 nM	4600 nM	–
CC(=O)SCC(=O)c1ccc(NS(=O)(=O)c2ccc3c(c2)ncn3C)nc1	240 nM	4900 nM	–
CC(=O)SCC(=O)c1ccc(NS(=O)(=O)c2ccc3c(c2)CCO3)nc1	95 nM	6400 nM	–
CC(=O)SCC(=O)c1ccc(NS(=O)(=O)c2ccc3ccccc3c2)cc1	29 nM	2600 nM	–
CC(=O)SCC(=O)c1ccc(NS(=O)(=O)c2ccc3c(c2)CCN3)cc1	160 nM	1100 nM	–
CC(=O)SCC(=O)c1ccc(NS(=O)(=O)c2ccc3c(c2)OCO3)nc1	360 nM	5500 nM	–
CC(=O)SCC(=O)c1ccc(NS(=O)(=O)c2ccc3c(c2)OCO3)cc1	88 nM	1400 nM	–
CC(=O)SCC(=O)c1ccc(NS(=O)(=O)c2ccccc2)nc1	150 nM	5300 nM	–
CC(=O)SCC(=O)c1ccc(NS(=O)(=O)c2ccc3c(c2)CCO3)cc1	82 nM	3200 nM	–
CC(=O)SCC(=O)c1ccc(NS(=O)(=O)c2ccc3ccccc3c2)nc1	42 nM	4900 nM	–
CC(=O)SCC(=O)c1ccc(NS(=O)(=O)c2ccc3cc[nH]c3c2)cc1	44 nM	600 nM	–
CC(=O)SCC(=O)c1ccc(NS(=O)(=O)c2ccc(Cl)c(Cl)c2)cc1	420 nM	–	–
CC(=O)SCC(=O)c1ccc(NS(=O)(=O)c2ccccc2Cl)cc1	850 nM	–	–
CC(=O)SCC(=O)c1ccc(NS(=O)(=O)c2cccc(Cl)c2)cc1	150 nM	–	–
CC(=O)SCC(=O)c1ccc(NS(=O)(=O)c2ccc3c(c2)OCCN3C)cc1	100 nM	2600 nM	–
CC(=O)SCC(=O)c1ccc(NS(=O)(=O)c2ccc3[nH]ccc3c2)cc1	59 nM	1500 nM	–
CC(=O)SCC(=O)c1ccc(NS(=O)(=O)c2ccc3c(c2)OCCN3C)nc1	150 nM	9600 nM	–
CC(=O)SCC(=O)c1ccc(NS(=O)(=O)c2ccc3c(c2)OCCO3)cc1	26 nM	400 nM	87%
CC(=O)SCC(=O)c1ccc(NS(=O)(=O)c2ccccc2)cc1	330 nM	15400 nM	–
